Experimental data taken from patent US20250186373A1, “TARGETING AN EUKARYOTIC INITIATION FACTOR 2 ALPHA KINASE TO REGULATE TRANSLATION UNDER STRESS” (The Johns Hopkins University, priority 2022, published 2025).
Read-outs that look alike come from different tables or passages of the source. Where a SMILES comes first, the peptide text is derived from it. The star is where a group is joined. Cbz = O=C(OCc1ccccc1)*

Assays:
MARK2 [1] = target: T1, MARK2 (Mus musculus, UniProt Q05512); experiment: cell-based MARK2 kinase activity assay based on eIF2α phosphorylation (immunoblot of MEFs); conditions: for phosphorylation level of eIF2α-51S: FIG. 21B; for activity in inhibiting the phosphorylation of eIF2α: comparison of seven drugs, FIG. 21E
T1 construct: endogenous in cells; host or cells: mouse embryonic fibroblasts (MEFs)
T1 sequence (Q05512 whole entry): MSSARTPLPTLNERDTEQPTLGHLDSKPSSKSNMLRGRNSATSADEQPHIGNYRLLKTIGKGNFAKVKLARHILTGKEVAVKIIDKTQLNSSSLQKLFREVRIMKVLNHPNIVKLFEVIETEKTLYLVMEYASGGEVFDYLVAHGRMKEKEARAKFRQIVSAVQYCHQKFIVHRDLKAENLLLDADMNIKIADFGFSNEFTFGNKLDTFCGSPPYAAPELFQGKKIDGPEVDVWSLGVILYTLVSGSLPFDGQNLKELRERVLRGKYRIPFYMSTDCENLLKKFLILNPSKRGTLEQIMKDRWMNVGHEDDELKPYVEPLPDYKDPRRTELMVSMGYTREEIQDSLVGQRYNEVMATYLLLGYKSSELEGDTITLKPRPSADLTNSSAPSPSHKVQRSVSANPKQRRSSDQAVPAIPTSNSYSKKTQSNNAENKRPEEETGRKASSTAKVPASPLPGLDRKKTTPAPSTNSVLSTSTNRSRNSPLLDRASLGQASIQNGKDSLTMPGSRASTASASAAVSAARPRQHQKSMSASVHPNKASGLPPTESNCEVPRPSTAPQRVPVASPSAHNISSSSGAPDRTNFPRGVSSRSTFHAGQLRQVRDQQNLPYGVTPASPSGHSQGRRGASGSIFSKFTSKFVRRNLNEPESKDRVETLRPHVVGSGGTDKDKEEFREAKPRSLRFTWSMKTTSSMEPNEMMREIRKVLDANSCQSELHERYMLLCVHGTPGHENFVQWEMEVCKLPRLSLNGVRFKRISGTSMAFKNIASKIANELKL
Protocol: Cells were washed twice with 1× PBS and then lysed and harvested on ice in RIPA solution (50 mM Tris-HCl (pH 7.6); 150 mM NaCl; 1% NP-40; 1% SDS; 100 mM sodium fluoride; 17.5 mM β-glycerophosphate; 0.5% sodium deoxycholate; 10% glycerol). The RIPA buffer was supplemented with EDTA-free protease inhibitor cocktail (Roche, USA), phosphatase inhibitor cocktail 2 and phosphatase inhibitor cocktail 3 (Sigma-Aldrich, USA), 1 μM phenylmethanesulfonyl fluoride, and 2 μM sodium orthovanadate. Lysates were kept cold on ice, pulse-sonicated for 10 min, and then centrifuged at 12,000 g at 4° C. for 10 min. The protein content of each sample was determined by a bicinchoninic acid (BCA) assay (Thermo Fisher). Equal amounts of total protein extract were resolved by SDS-PAGE and transferred to nitrocellulose membranes (Millipore HATF08550, USA). The blots were blocked with 5% w/v BSA and 0.05% NaN3 in TBST and incubated with primary antibodies at 4° C. overnight, then finally incubated with appropriate secondary antibodies. The antibodies used include those against eIF2α (Cell Signaling 5324, USA), peIF2α (Cell Signaling 9721), PERK (Cell Signaling 3192), pPERK-^980T (Cell Signaling 3179), PKR (Santa Cruz SC-708 and SC-6282), HRI (Millipore 07-728), GCN2 (Cell Signaling 3302), pGCN2-899T (Abcam ab75836, USA), ATF4 (Cell Signaling 11815), HSP90 (Cell Signaling 8165), HSP70 (Cell Signaling 4872), Flag (Sigma F1804), Actin (Santa Cruz SC-47778), Tubulin (Proteintech 10068-1-AP, USA), PKCδ (Santa Cruz SC-937; Cell Signaling 2058), pPKCδ-311Y (Cell Signaling 2055), pPKCδ-^505T (Cell Signaling 9374), MARK2 (Abcam ab135816; Santa Cruz SC-365405), pMARK2-^595T (Abcam ab34751), PP1a (Cell Signaling 2582), pPP1α-^320T (Cell Signaling 2581), and puromycin (Millipore MABE343). Images were captured with an Odyssey imager and analyzed with Image Studio software (Licor 9120, USA).

[2] = tested on: PKCδ-MARK2-eIF2α signaling pathway; format: cell-based, mouse
Protocol: Since the phosphorylation of MARK2 at threonine 595 is required for its positive regulation of eIF2α phosphorylation (FIG. 1E), we asked whether this form of phosphorylated MARK2 is regulated upon cytosolic protein misfolding stress.
The condition of MG132 treatment at 20 μM for 4 h was chosen for optimal induction of eIF2α phosphorylation in the analysis of these MEFs (FIG. 9D). To test whether activation of MARK2 also can be induced by other types of stress, we subjected the cells to oxidative stress, such as sodium arsenite treatment, or ER stress, such as tunicamycin treatment.
Cells were washed twice with 1× PBS and then lysed and harvested on ice in RIPA solution (50 mM Tris-HCl (pH 7.6); 150 mM NaCl; 1% NP-40; 1% SDS; 100 mM sodium fluoride; 17.5 mM β-glycerophosphate; 0.5% sodium deoxycholate; 10% glycerol). The RIPA buffer was supplemented with EDTA-free protease inhibitor cocktail (Roche, USA), phosphatase inhibitor cocktail 2 and phosphatase inhibitor cocktail 3 (Sigma-Aldrich, USA), 1 μM phenylmethanesulfonyl fluoride, and 2 μM sodium orthovanadate. Lysates were kept cold on ice, pulse-sonicated for 10 min, and then centrifuged at 12,000 g at 4° C. for 10 min. The protein content of each sample was determined by a bicinchoninic acid (BCA) assay (Thermo Fisher). Equal amounts of total protein extract were resolved by SDS-PAGE and transferred to nitrocellulose membranes (Millipore HATF08550, USA). The blots were blocked with 5% w/v BSA and 0.05% NaN3 in TBST and incubated with primary antibodies at 4° C. overnight, then finally incubated with appropriate secondary antibodies.

[3] = tested on: interaction between PKCδ and HSP90; experiment: coimmunoprecipitation of HSP90 by anti-PKCδ antibody in MEFs; format: cell-based, mouse; conditions: MEF cells treated with MG132
Excerpt: We next investigated how the PKC&-MARK2-eIF2α signaling pathway senses protein misfolding stress. Since misfolded proteins, including SOD1, are prone to interact with molecular chaperone proteins, Wang et al., 2009; Tummala et al., 2005, we reasoned that the upstream regulator PKCδ could potentially interact with a molecular chaperone and that disruption of this interaction by misfolded proteins during proteotoxic stress might be a mechanism to account for the activation of the PKCδ kinase. We searched a protein-protein interaction database, Szklarczyk et al., 2015, and identified several candidate interactors of PKCδ, including HSP90, HSP90a, and HSP70. To evaluate potential interactions between PKCδ and these molecular chaperones, we performed coimmunoprecipitation experiments with endogenous proteins in MEF cells. After immunoprecipitation of PKCδ, only HSP90 was pulled down by PKCδ (FIG. 3A). When the level of PKCδ protein was elevated via stable expression in MEF cells, more HSP90 protein could be coimmunoprecipitated by PKCδ. Conversely, depletion of PKCδ from MEFs or use of an IgG control instead of the anti-PKCδ antibody abolished the coimmunoprecipitation of HSP90, confirming the specific interaction between PKCδ and HSP90 (FIG. 3A). […]

MARK2 [4] = conditions: previous report; cited from earlier work
[5] = WT and 4-KO MEFs, sodium arsenite 200 μM, 1 h

Cc1c[nH]c(-c2cnc(NCCNc3ccc(C#N)cn3)nc2-c2ccc(Cl)cc2Cl)n1 [CHIR99021]
phosphorylation level of eIF2α-51S (MARK2 [1]; MEFs, 20 μM, 1 hr, versus DMSO control): decreased the phosphorylation level of eIF2α-^51S | levels of phosphorylated eIF2α-51S (MARK2 [1]; at low concentrations): substantially lowering the levels of phosphorylated eIF2α-^51S | activity in inhibiting the phosphorylation of eIF2α (MARK2 [1]): high activity

COc1cc2ncnc(Nc3ccc(F)c(Cl)c3)c2cc1OCCCN1CCOCC1 [Gefitinib]
phosphorylation level of eIF2α-51S (MARK2 [1]; MEFs, 40 μM, 1 hr, versus DMSO control): needs a higher concentration than CHIR99021 to achieve the similar effect | activity in inhibiting the phosphorylation of eIF2α (MARK2 [1]): low activity

CC(C)C[C@@H](C=O)NC(=O)[C@H](CC(C)C)NC(=O)[C@H](CC(C)C)NC(=O)OCc1ccccc1 [MG132] (Cbz-Leu-Leu-Leu-aldehyde)
level of the ATF4 protein ([2]; MEF cells treated with MG132): increased the level of the ATF4 protein | levels of phosphorylated MARK2-595T ([2]; MEF cells treated with MG132): substantial increase | levels of phosphorylated eIF2α-51S ([2]; MEF cells treated with MG132): corresponding increase | time at which phosphorylation of eIF2α-51S peaked ([2]; MEFs, MG132 20 μM time course): around 4 h | interaction between PKCδ and HSP90 [3]: completely abolished the interaction between PKCδ and HSP90

Cn1cc(C2=C(c3ccc(Cl)cc3Cl)C(=O)NC2=O)c2ccccc21 [SB216763]
MARK kinase function (MARK2 [4]): inhibited MARK kinase function | phosphorylation of eIF2α-51S (MARK2 [1]; MEFs, 20 μM, 1 hr, versus DMSO control, FIG. 21A): substantially reduces the phosphorylation of eIF2α-^51S | increase in the levels of phosphorylated eIF2α-51S in response to MG132 (MARK2 [1]; cell co-treatment with MG132): substantially diminished the increase | activity in inhibiting the phosphorylation of eIF2α (MARK2 [1]): high activity for inhibiting eIF2α phosphorylation | activity in inhibiting the phosphorylation of eIF2α (MARK2 [1]; listed as SB-216763): high activity

O=[As]O [sodium arsenite]
phosphorylation of MARK2-595T [2, 5]: able to induce the phosphorylation | phosphorylation of eIF2α-51S [2, 5]: able to induce the phosphorylation

tunicamycin
phosphorylation of MARK2-595T ([2]; MEFs, tunicamycin 24 μg/ml, 2 h): no effect on the phosphorylation of MARK2-^595T | phosphorylation of eIF2α-51S ([2]; WT and 4-KO MEFs, tunicamycin 24 μg/ml, 2 h): induced the phosphorylation of eIF2α-^51S in WT MEFs but not in the cells lacking the 4 previously known kinases
